Data taken from patent US10011597B2 (APOGLYX AB, priority 2014, dated 2018).
pIC50: −log10 of the molar value.

Target: T1, human aquaporin 9 (Homo sapiens, UniProt O43315)
T1 construct: expressed in transfected cells; host or cells: Human AQP9 cell line with tetracycline added to the medium
T1 sequence (O43315 1-295): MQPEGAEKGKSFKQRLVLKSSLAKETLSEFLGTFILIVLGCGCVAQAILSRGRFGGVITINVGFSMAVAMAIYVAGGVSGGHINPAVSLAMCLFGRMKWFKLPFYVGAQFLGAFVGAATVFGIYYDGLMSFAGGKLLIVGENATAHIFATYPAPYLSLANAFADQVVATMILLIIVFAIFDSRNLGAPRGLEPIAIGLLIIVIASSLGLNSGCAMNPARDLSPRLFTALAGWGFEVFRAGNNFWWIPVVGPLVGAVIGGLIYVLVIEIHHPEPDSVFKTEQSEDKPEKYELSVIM
Test: Calcein quenching fluostar assay
Type: cell-based
Settings: inhibition of human aquaporin 9; Human AQP9 cell line, tetracyclin-induced; 25° C.
Description: Calcein Quenching Fluostar Assay
A calcein quenching fluostar assay was performed in order to investigate the biological activity of the newly synthesized examples 1 to 57. This type of assay is disclosed in J. Biol. Chem., 2011, 286, 44319-44325 and Am. J. Physiol. Renal Physiol. (2010), 298, F224-230.
1) Two days prior to commencement of the assay, seed 10,000 cells/well of 96 well black clear bottom plate (Greiner Poly-lysin plate). A 1:1 mix of Dulbecco's Modified Eagle's Medium:Nutrient Mixture F-12 (DMEM: F12) was obtained from Gibco. Tetracycline stock of 5 mg/ml in 96% ethanol is used. Medium:DMEM/F12/10% Donor Bovine Serum, Human AQP9 cell line+1:270,000 tetracyclin, mouse AQP9 cell line+1:2,700,000 tetracycline.
2) Day of assay: Flick/slam off the medium and add 50 μl/well of loading solution: 5 ml DMEM/F12/10% Donor Bovine Serum, 25 μl Calcein AM—from freshly dissolved aliquot in 50 μl DMSO (VWR #734-1434), and 100 μl Probenecid.
3) Incubate the well for 90 minutes at 37° C.
4) Perform one wash with 75 μl wash buffer.
5) Add 75 μl of an example compound prepared in wash buffer per well.
Example compounds are prepared in 500 μl U bottom PP plates (NUNC). […] Substance in DMSO are added to row A; 180 μl of wash buffer+1% DMSO are added to rows B-H. 90 μl from row A are transferred and mixed with all other wells (up to row G) to make a 3-fold dilution series.
6) Assay in FLUOstar Optima at 25° C. Settings buffer addition at 135 μl seconds, add 75 μl/well, record time course for 30 seconds, add sucrose buffer 3.6 seconds into recording.
7) Normalization to initial in Excel.
8) Fit to “exponential decay” function in GraphPad Prism 5.0, then arrange half live shrinking values according to wells and fit dose-response curves.

pIC50: 6.88
Compound: CCn1c(SCC(=O)Nc2nnc(-c3ccc(S(C)(=O)=O)cc3)s2)nnc1-c1cccnc1 [Example 57, 2-{[4-ethyl-5-(pyridin-3-yl)-4H-1,2,4-triazol-3-yl]sulfanyl}-N-[5-(4-methanesulfonylphenyl)-1,3,4-thiadiazol-2-yl]acetamide]
